Laboratory results reported in publication PMC8621456, “New Investigations with Lupane Type A-Ring Azepane Triterpenoids for Antimycobacterial Drug Candidate Design” (International Journal of Molecular Sciences, 2021).
≈ marks a conversion by molar mass, not a printed value. Where “and” joins values, the source holds several entries; their conditions need not be identical. Equal entries are not always repeated. Where two headings read alike, the source gives them in different places. Marks after values point to notes of the source that are not given here.

Columns and labels:
[1] = system: M. abscessus (ATCC 19977); test: MIC determination against NTM strains, microbroth dilution; format: cell-based, Mycobacterium abscessus; details: Mycobacteroides abscessus
M. avium (ATCC 25291) [2] = test: as above; format: cell-based; details: Mycobacterium avium, ATCC25291; NTM strain
[3] = system: M. avium complex (ATCC 700,891 MAC 101); test: Ex vivo efficacy in infected THP-1 macrophages; format: cell-based; details: Mycobacterium avium
[4] = system: M. abscessus (ATCC 19977); test: Ex vivo efficacy in infected THP-1 macrophages; format: cell-based, Mycobacterium abscessus; details: Mycobacteroides abscessus
M. tuberculosis H37Rv [5] = details: compound 1 included as reference; ref [26],[27],[28]; cited from earlier work
H37Rv (katG^del) = details: compound 1 included as reference; ref [26],[27],[28]; cited from earlier work
[6] = system: M. abscessus (ATCC 19977); details: compound 1 included as reference; ref [26],[27],[28]; cited from earlier work
M. avium (ATCC 25291) [7] = details: compound 1 included as reference; ref [26],[27],[28]; cited from earlier work
M. tuberculosis H37Rv [8] = test: microbe, parasite or virus in culture; format: cell-based; details: Mycobacterium tuberculosis, read-out: MIC (µM) H37Rv
M. tuberculosis H37Rv [9] = test: Fractional inhibitory concentration (FIC), checkerboard with standard of care drugs; format: cell-based, Mycobacterium tuberculosis
MTB H37Rv = details: ref [26]; cited from earlier work
[10] = ATCC19977, NTM strain, read-out: MIC (µM) M. abscessus 19977
[11] = ATCC700, infected THP-1 macrophages, concentration for >90% inhibition, read-out: M. avium Ex Vivo Efficacy (>90% Inhibition µM)
[12] = ATCC19977, infected THP-1 macrophages, concentration for >90% inhibition, read-out: M. abscessus Ex Vivo Efficacy (>90% Inhibition µM)
[13] = ATCC19977, read-out: MIC (µM) M. abscessus 19977
[14] = ATCC700, THP-1, read-out: M. avium Ex Vivo Efficacy (>90% Inhibition µM)
[15] = ATCC19977, THP-1, read-out: M. abscessus Ex Vivo Efficacy (>90% Inhibition µM)

Compound | MIC [1, 10] | MIC (M. avium (ATCC 25291) [2]) | MIC (M. tuberculosis H37Rv [8]) | also measured
NCC[C@H](O)C(=O)N[C@@H]1C[C@H](N)[C@@H](O[C@H]2O[C@H](CN)[C@@H](O)[C@H](O)[C@H]2O)[C@H](O)[C@H]1O[C@H]1O[C@H](CO)[C@@H](O)[C@H](N)[C@H]1O [Amikacin, reference compound] | 8 µM (≈ 4.68 µg/mL) | – | – | –
CC[C@H]1OC(=O)[C@H](C)[C@@H](O[C@H]2C[C@@](C)(OC)[C@@H](O)[C@H](C)O2)[C@H](C)[C@@H](O[C@@H]2O[C@H](C)C[C@H](N(C)C)[C@H]2O)[C@](C)(OC)C[C@@H](C)C(=O)[C@H](C)[C@@H](O)[C@]1(C)O [Clarithromycin, reference compound] | 4 µM (≈ 2.99 µg/mL) | 0.125 µM (≈ 0.0935 µg/mL) | – | IC90 [3, 11]: 8 µM; IC90 [4, 12]: 128 µM
C=C(C)[C@@H]1CC[C@]2(CO)CC[C@]3(C)[C@H](CC[C@@H]4[C@@]5(C)CCCNC(C)(C)[C@@H]5CC[C@]43C)[C@@H]12 [Compound 1, azepanobetulin] | – | – | – | IC90 [3, 11]: 8 µM; IC90 [4, 12]: > 128 µM; MIC (µM) H37Rv (M. tuberculosis H37Rv [5]): 4 * µM; MIC (µM) H37Rv (katG^del) (H37Rv (katG^del)): 2 * µM; MIC (µM) M. abscessus 19977 [6]: 8 * µM; MIC (µM) M. avium 25291 (M. avium (ATCC 25291) [7]): 0.125 µM and 0.125 * µM
C=C(C)[C@@H]1CC[C@]2(C)CC[C@]3(C)[C@H](CC[C@@H]4[C@@]5(C)CCCNC(C)(C)[C@@H]5CC[C@]43C)[C@@H]12 [Compound 2, azepano-lupeol] | ≤ 4 µM | 1 µM (≈ 0.426 µg/mL) | ≤ 4 µM | IC90 [3, 11]: > 128 µM; IC90 [4, 12]: > 128 µM
C=C(C)[C@@H]1CC[C@]2(CN)CC[C@]3(C)[C@H](CC[C@@H]4[C@@]5(C)CCCNC(C)(C)[C@@H]5CC[C@]43C)[C@@H]12 [Compound 3] | – | 2 µM (≈ 0.882 µg/mL) | 8 µM (≈ 3.53 µg/mL) | MIC [1, 13]: 16 µM (≈ 7.05 µg/mL); IC90 [3, 14]: > 128 µM; IC90 [4, 15]: > 128 µM; FIC interpretation with Isoniazid (M. tuberculosis H37Rv [9]): 1.0 Additive (key: FIC VALUE ≤ 0.5 (Synergistic); 0.5–1.0 (Additive); 1.0–4.0 (Indifferent); > 4.0 (Antagonistic)); FIC interpretation with Rifampin (M. tuberculosis H37Rv [9]): 1.0 Additive (key: FIC VALUE ≤ 0.5 (Synergistic); 0.5–1.0 (Additive); 1.0–4.0 (Indifferent); > 4.0 (Antagonistic)); FIC value with Ethambutol (M. tuberculosis H37Rv [9]): 1.5 Indifferent; FIC value with Isoniazid (M. tuberculosis H37Rv [9]): 1.0 Additive; FIC value with Rifampin (M. tuberculosis H37Rv [9]): 1.0 Additive
C=C(C)[C@@H]1CC[C@]2(COC(=O)c3ccccc3C(=O)O)CC[C@]3(C)[C@H](CC[C@@H]4[C@@]5(C)CCCNC(C)(C)[C@@H]5CC[C@]43C)[C@@H]12 [Compound 4] | – | 4 µM (≈ 2.36 µg/mL) | 16 µM (≈ 9.44 µg/mL) | MIC [1, 13]: 16 µM (≈ 9.44 µg/mL)
C=C(C)[C@@H]1CC[C@]2(COC(=O)c3cccnc3)CC[C@]3(C)[C@H](CC[C@@H]4[C@@]5(C)CCCNC(C)(C)[C@@H]5CC[C@]43C)[C@@H]12 [Compound 5] | – | 1 µM (≈ 0.547 µg/mL) | 8 µM (≈ 4.37 µg/mL) | MIC [1, 13]: 16 µM (≈ 8.75 µg/mL); IC90 [3, 14]: 32 µM; IC90 [4, 15]: > 128 µM
C=C(C)[C@@H]1CC[C@]2(COS(=O)(=O)c3ccc(C)cc3)CC[C@]3(C)[C@H](CC[C@@H]4[C@@]5(C)CCCNC(C)(C)[C@@H]5CC[C@]43C)[C@@H]12 [Compound 6] | – | 1 µM (≈ 0.596 µg/mL) | 8 µM (≈ 4.77 µg/mL) | MIC [1, 13]: 8 µM (≈ 4.77 µg/mL)
C=C(C)[C@@H]1CC[C@]2(C=NNC(=O)c3ccncc3)CC[C@]3(C)[C@H](CC[C@@H]4[C@@]5(C)CCCNC(C)(C)[C@@H]5CC[C@]43C)[C@@H]12 [Compound 7] | 8 µM (≈ 4.47 µg/mL) | 4 µM (≈ 2.24 µg/mL) | – | IC90 [3, 11]: 128 µM; IC90 [4, 12]: > 128 µM; FIC value with Rifampin (M. tuberculosis H37Rv [9]): 1.0 Additive; FIC value with Ethambutol (M. tuberculosis H37Rv [9]; combination with Ethambutol): 1.0; FIC value with Isoniazid (M. tuberculosis H37Rv [9]; combination with Isoniazid): 0.8
C=C(C)[C@@H]1CC[C@]2(C(=O)NC(CO)Cc3ccccc3)CC[C@]3(C)[C@H](CC[C@@H]4[C@@]5(C)CCCNC(C)(C)[C@@H]5CC[C@]43C)[C@@H]12 (stereo partly drawn) [Compound 8] | – | 4 µM (≈ 2.36 µg/mL) | 8 µM (≈ 4.71 µg/mL) | MIC [1, 13]: 32 µM (≈ 18.8 µg/mL); IC90 [3, 14]: 16 µM; IC90 [4, 15]: > 128 µM
C=C(C)[C@@H]1CC[C@]2(C(=O)N3CCN(C)CC3)CC[C@]3(C)[C@H](CC[C@@H]4[C@@]5(C)CCCNC(C)(C)[C@@H]5CC[C@]43C)[C@@H]12 [Compound 9] | – | 4 µM (≈ 2.15 µg/mL) | ≤ 4 µM | MIC [1, 13]: ≤ 4 µM; IC90 [3, 14]: > 128 µM; IC90 [4, 15]: > 128 µM; FIC value with Ethambutol (M. tuberculosis H37Rv [9]): 2.5 Indifferent; FIC value with Rifampin (M. tuberculosis H37Rv [9]): 1.5 Indifferent
C=C(C)[C@@H]1CC[C@]2(C(=O)NC3CCCCC3)CC[C@]3(C)[C@H](CC[C@@H]4[C@@]5(C)CCCNC(C)(C)[C@@H]5CC[C@]43C)[C@@H]12 [Compound 10] | – | 2 µM (≈ 1.07 µg/mL) | ≤ 4 µM | MIC [1, 13]: 8 µM (≈ 4.3 µg/mL); IC90 [3, 14]: 64 µM; IC90 [4, 15]: > 128 µM
C=C(C)[C@@H]1CC[C@]2(COC(C)=O)CC[C@]3(C)[C@H](CC[C@@H]4[C@@]5(C)CCCN(C(C)=O)C(C)(C)[C@@H]5CC[C@]43C)[C@@H]12 [Compound 11] | 16 µM (≈ 8.41 µg/mL) | 4 µM (≈ 2.1 µg/mL) | 8 µM (≈ 4.21 µg/mL) | –
C=C(C)[C@@H]1CC[C@]2(COC(C)=O)CC[C@]3(C)[C@H](CC[C@@H]4[C@@]5(C)CCCN(C(=O)c6cccnc6)C(C)(C)[C@@H]5CC[C@]43C)[C@@H]12 [Compound 12] | 8 µM (≈ 4.71 µg/mL) | 4 µM (≈ 2.36 µg/mL) | 32 µM (≈ 18.8 µg/mL) | –
CC(=O)[C@@H]1CC[C@]2(COS(=O)(=O)c3ccc(C)cc3)CC[C@]3(C)[C@H](CC[C@@H]4[C@@]5(C)CCCNC(C)(C)[C@@H]5CC[C@]43C)[C@@H]12 [Compound 13] | 16 µM (≈ 9.57 µg/mL) | 2 µM (≈ 1.2 µg/mL) | 32 µM (≈ 19.1 µg/mL) | –
C=C(CBr)[C@@H]1CC[C@]2(COC(C)=O)CC[C@]3(C)[C@H](CC[C@@H]4[C@@]5(C)CCCNC(C)(C)[C@@H]5CC[C@]43C)[C@@H]12 [Compound 14] | > 64 µM | 0.0625 µM (≈ 0.0352 µg/mL) | > 32 µM | –
C=C(CN=[N+]=[N-])[C@@H]1CC[C@]2(COC(C)=O)CC[C@]3(C)[C@H](CC[C@@H]4[C@@]5(C)CCCNC(C)(C)[C@@H]5CC[C@]43C)[C@@H]12 [Compound 15] | > 64 µM | 64 µM (≈ 33.6 µg/mL) | > 32 µM | –
CC1(C)CCC23CCC4(C)C(CCC5C6(C)CCCNC(C)(C)C6CCC54C)C2C1OC3 (stereo not drawn) [Compound 17] | 16 µM (≈ 7.07 µg/mL) | 0.5 µM (≈ 0.221 µg/mL) | 16 µM (≈ 7.07 µg/mL) | IC90 [3, 11]: > 128 µM; IC90 [4, 12]: > 128 µM
CC(C)=C1CCC=C2CC[C@]3(C)[C@H](CC[C@@H]4[C@@]5(C)CCCNC(C)(C)[C@@H]5CC[C@]43C)[C@H]21 [Compound 18] | 32 µM (≈ 13.6 µg/mL) | 4 µM (≈ 1.69 µg/mL) | 16 µM (≈ 6.78 µg/mL) | IC90 [3, 11]: 128 µM; IC90 [4, 12]: > 128 µM
C#CCNC(=O)[C@]12CC[C@@H](C(=C)C)[C@@H]1[C@H]1CC[C@@H]3[C@@]4(C)CCCNC(C)(C)[C@@H]4CC[C@@]3(C)[C@]1(C)CC2 [Compound 20, 17-(Propargyl)-3-deoxo-3a-homo-3a-aza-lup-20(29)-en-carboxamide] | 16 µM (≈ 7.88 µg/mL) | 4 µM (≈ 1.97 µg/mL) | ≤ 4 µM | –
NNC(=O)c1ccncc1 [Isoniazid, reference compound] | – | – | 0.03 µM (≈ 0.00411 µg/mL) | –
COc1c(N2C[C@@H]3CCCN[C@@H]3C2)c(F)cc2c(=O)c(C(=O)O)cn(C3CC3)c12 [Moxifloxacin, reference compound] | – | – | 0.06 µM (≈ 0.0241 µg/mL) | –
O=[N+]([O-])c1cn2c(n1)OC[C@@H](OCc1ccc(OC(F)(F)F)cc1)C2 [Pretomanid, reference compound] | – | – | 0.125 µM (≈ 0.0449 µg/mL) | –
CO[C@H]1/C=C/O[C@@]2(C)Oc3c(C)c(O)c4c(O)c(c(/C=N/N5CCN(C)CC5)c(O)c4c3C2=O)NC(=O)/C(C)=C\C=C\[C@H](C)[C@H](O)[C@@H](C)[C@@H](O)[C@@H](C)[C@H](OC(C)=O)[C@@H]1C [Rifampin, reference compound] | – | 0.0625 µM (≈ 0.0514 µg/mL) | ≤ 0.004 µM | –
A-azepano-28-cinnamoyloxybetulin | – | – | – | MBC against MTB H37Rv (MTB H37Rv): 4 µM; MIC against MTB H37Rv (MTB H37Rv): 2 µM
